According to ChEMBL document CHEMBL2407072 (Eur J Med Chem, 2013):

Key:
Carbonic anhydrase 9 = Carbonic anhydrase 9 (Homo sapiens, UniProt Q16790); experiment: Inhibition of human recombinant CA9 using 4-nitrophenylacetate as substrate preincubated for 15 mins by stopped-flow CO2 hydration assay
B16-F10 = experiment: cells; conditions: Mus musculus, B16-F10, 48 h
Description: Cytotoxicity against mouse B16F10 cells after 48 hrs by CCK8 assay

MCF7 = conditions: Homo sapiens, MCF7, 48 h
[1] = Cytotoxicity against human macrophages assessed as microscopically detectable alteration of normal cell morphology after 48 hrs […]; type: cell-based; conditions: macrophage
A549 [2] = experiment: Induction of apoptosis in human A549 cells assessed as early apoptotic cells at 2.5 ug/ml after 48 hrs using propidium iodide staining by FACS assay; type: functional
A549 [3] = experiment: Induction of apoptosis in human A549 cells assessed as necrotic cells at 160 ug/ml after 48 hrs using propidium iodide staining by FACS assay; type: functional
A549 [4] = experiment: Induction of apoptosis in human A549 cells assessed as necrotic cells at 10 ug/ml after 48 hrs using propidium iodide staining by FACS assay; type: functional
A549 [5] = experiment: Induction of apoptosis in human A549 cells assessed as late apoptotic cells at 2.5 ug/ml after 48 hrs using propidium iodide staining by FACS assay; type: functional
A549 [6] = experiment: Induction of apoptosis in human A549 cells assessed as early apoptotic cells at 40 ug/ml after 48 hrs using propidium iodide staining by FACS assay; type: functional
A549 [7] = experiment: Induction of apoptosis in human A549 cells assessed as late apoptotic cells at 10 ug/ml after 48 hrs using propidium iodide staining by FACS assay; type: functional
A549 [8] = experiment: Induction of apoptosis in human A549 cells assessed as viable cells at 40 ug/ml after 48 hrs using propidium iodide staining by FACS assay; type: functional; conditions: A549, 48 h, read-out: Activity
A549 [9] = experiment: Induction of apoptosis in human A549 cells assessed as early apoptotic cells at 10 ug/ml after 48 hrs using propidium iodide staining by FACS assay; type: functional
A549 [10] = experiment: Induction of apoptosis in human A549 cells assessed as necrotic cells at 2.5 ug/ml after 48 hrs using propidium iodide staining by FACS assay; type: functional
A549 [11] = experiment: Induction of apoptosis in human A549 cells assessed as viable cells at 2.5 ug/ml after 48 hrs using propidium iodide staining by FACS assay; type: functional; conditions: A549, 48 h, read-out: Activity
A549 [12] = experiment: Induction of apoptosis in human A549 cells assessed as late apoptotic cells at 40 ug/ml after 48 hrs using propidium iodide staining by FACS assay; type: functional
A549 [13] = experiment: Induction of apoptosis in human A549 cells assessed as necrotic cells at 40 ug/ml after 48 hrs using propidium iodide staining by FACS assay; type: functional
A549 [14] = experiment: Induction of apoptosis in human A549 cells assessed as viable cells at 10 ug/ml after 48 hrs using propidium iodide staining by FACS assay; type: functional; conditions: A549, 48 h, read-out: Activity
A549 [15] = experiment: Induction of apoptosis in human A549 cells assessed as early apoptotic cells at 160 ug/ml after 48 hrs using propidium iodide staining by FACS assay; type: functional
A549 [16] = experiment: Induction of apoptosis in human A549 cells assessed as late apoptotic cells at 160 ug/ml after 48 hrs using propidium iodide staining by FACS assay; type: functional
A549 [17] = experiment: Induction of apoptosis in human A549 cells assessed as viable cells at 160 ug/ml after 48 hrs using propidium iodide staining by FACS assay; type: functional; conditions: A549, 48 h, read-out: Activity

IC50 (Carbonic anhydrase 9) [nM] | IC50 (B16-F10) [nM] | IC50 (MCF7) [nM] | Structure (SMILES) | MCC [1] [µmol] | other results
50 | 240 | 67 | Cc1ccc2oc(=O)c(/C=N/c3ccc(S(=O)(=O)NC(=N)N)cc3)c(Cl)c2c1 | – | –
87 | 280 | 33 | Cc1ccc2oc(=O)c(/C=N/c3ccc(S(=O)(=O)Nc4nccs4)cc3)c(Cl)c2c1 | – | –
138 | 300 | 160 | O=c1oc2ccccc2c(Cl)c1/C=N/c1ccc(S(=O)(=O)Nc2nccs2)cc1 | – | –
141 | 270 | 12 | Cc1cc(NS(=O)(=O)c2ccc(/N=C/c3c(Cl)c4ccccc4oc3=O)cc2)no1 | 0.42 | –
52 | 250 | 16 | Cc1ccc2oc(=O)c(/C=N/c3ccc(S(=O)(=O)Nc4cc(C)on4)cc3)c(Cl)c2c1 | – | –
48 | 270 | 61 | Cc1ccc2oc(=O)c(/C=N/c3ccc(S(=O)(=O)Nc4nccc(C)n4)cc3)c(Cl)c2c1 | 0.56 | –
67 | 300 | 25 | Cc1ccc2oc(=O)c(/C=N/c3ccc(S(=O)(=O)Nc4nc(C)cc(C)n4)cc3)c(Cl)c2c1 | – | –
85 | 360 | 270 | Cc1ccc2oc(=O)c(/C=N/c3ccc(S(N)(=O)=O)cc3)c(Cl)c2c1 | 1.2 | –

The remaining lines, values behind:

Structure (SMILES) | IC50 (Carbonic anhydrase 9) [nM] | IC50 (B16-F10) [nM] | IC50 (MCF7) [nM] | MCC [1] [µmol] | other results
CC(C)(C)c1cc(C(C)(C)C)c2oc(=O)c(/C=N/c3ccc(S(=O)(=O)NC(=N)N)cc3)c(Cl)c2c1 | 74 | 250 | 18 | – | –
COc1cccc2c1C(=O)c1c(O)c3c(c(O)c1C2=O)C[C@@](O)(C(=O)CO)C[C@@H]3O[C@H]1C[C@H](N)[C@H](O)[C@H](C)O1 [DOXORUBICIN] | – | 72 | – | – | –
Cc1ccnc(NS(=O)(=O)c2ccc(/N=C/c3c(Cl)c4cc(C(C)(C)C)cc(C(C)(C)C)c4oc3=O)cc2)n1 | 24 | 190 | 32 | 0.36 | –
NS(=O)(=O)c1ccc(/N=C/c2c(Cl)c3ccccc3oc2=O)cc1 | 91 | 300 | 120 | 0.58 | –
Cc1cc(C)nc(NS(=O)(=O)c2ccc(/N=C/c3c(Cl)c4cc(C(C)(C)C)cc(C(C)(C)C)c4oc3=O)cc2)n1 | 90 | 220 | 8.8 | 0.73 | –
N=C(N)NS(=O)(=O)c1ccc(/N=C/c2c(Cl)c3ccccc3oc2=O)cc1 | 188 | 180 | 58 | 0.62 | –
CC(C)(C)c1cc(C(C)(C)C)c2oc(=O)c(/C=N/c3ccc(S(=O)(=O)Nc4nccs4)cc3)c(Cl)c2c1 | 51 | 160 | 12 | – | –
CC(C)(C)c1cc(C(C)(C)C)c2oc(=O)c(/C=N/c3ccc(S(N)(=O)=O)cc3)c(Cl)c2c1 | 34 | 240 | 16 | 0.58 | –
Cc1cc(NS(=O)(=O)c2ccc(/N=C/c3c(Cl)c4cc(C(C)(C)C)cc(C(C)(C)C)c4oc3=O)cc2)no1 | 43 | 240 | 64 | – | –
Cc1ccnc(NS(=O)(=O)c2ccc(/N=C/c3c(Cl)c4ccccc4oc3=O)cc2)n1 | 84 | 230 | 31 | – | –
Cc1cc(C)nc(NS(=O)(=O)c2ccc(/N=C/c3c(Cl)c4ccccc4oc3=O)cc2)n1 | 124 | 170 | 20 | – | Activity (A549 [2]): 6.8%; Activity (A549 [3]): 8.99%; Activity (A549 [4]): 1.58%; Activity (A549 [5]): 19.6%; Activity (A549 [6]): 6.54%; Activity (A549 [7]): 12.1%; viability at 40 µg/mL (A549 [8]): 85.1%; Activity (A549 [9]): 5.09%; Activity (A549 [10]): 4.14%; viability at 2.5 µg/mL (A549 [11]): 69.4%; Activity (A549 [12]): 6.28%; Activity (A549 [13]): 2.04%; viability at 10 µg/mL (A549 [14]): 81.2%; Activity (A549 [15]): 9.24%; Activity (A549 [16]): 9.62%; viability at 160 µg/mL (A549 [17]): 72.2%
